Paper PMC10138723, “Cytotoxic Steroidal Saponins Containing a Rare Fructosyl from the Rhizomes of Paris polyphylla var. latifolia” (International Journal of Molecular Sciences, 2023)

How the values were obtained:
[1] = system: Bax/Bcl-2, cleaved caspase 3, cytochrome c in LN229 cells; assay: Western blot of apoptosis-related proteins in LN229; format: cell-based, human; conditions: LN229, 24 h, compared with the control group
From the text: (§1) Primary antibodies against Bax (50599-2-Ig), Bcl-2 (26593-1-AP), Akt (10176-2-AP), p-Akt (28731-1-AP), PI3K (20584-1-AP), p-PI3K (60225-1-Ig), mTOR (28273-1-AP), p-mTOR (67778-1-Ig), Cytochrome C (10993-1-AP), β-actin (20536-1-AP), HRP-Goat-Anti-Mouse IgG (H+L) (SA00001-1), and HRP-Goat-Anti-Rabbit IgG (H+L) (SA00001-2) were obtained from Proteintech Group, Inc. (Rosemont, USA). Primary antibodies against EGFR (WL0682a), p-EGFR (WL03432) and cleaved caspase 3 (WL01992) were obtained from Wanleibio (Shenyang, China). The LN229 cells were treated with various concentrations of 1 or 0.1% DMSO for 24 h. A BCA Protein Assay Kit was used to measure the protein concentration, then equal amounts of protein samples were separated by 10% sodium dodecyl sulfate–polyacrylamide gel electrophoresis and transferred to a polyvinylidene fluoride membrane (Millipore, Burlington, MA, USA). The membranes were blocked for 2 h in Tris-buffered saline with PBST buffer, containing 5% skim milk. Then, the membranes were incubated with the appropriate primary antibodies overnight at 4 ℃. Then, the membranes were washed with PBST and reacted with a secondary horseradish peroxidase-conjugated antibody. Image Lab 5.2.1 (Biorad Laboratories, Hercules, CA, USA) was used to analyze the blots after detection using enhanced chemiluminescence (Millipore). Data analyses were performed using the GraphPad Prism software (San Diego, CA, USA).

[2] = system: Capan-2 (human pancreatic cancer cells); assay: CCK-8 cytotoxic assay, Capan-2; format: cell-based; conditions: Capan-2 cells, CCK-8, 24 h, read-out: IC50 ± SD, Capan-2
From the text: (§2) U251 (human glioma cells), HeLa (human cervical cancer cells), and HepG2 (human hepatic cancer cells) were purchased from the Chinese Academy of Sciences (China), and Capan-2 (human pancreatic cancer cells) were obtained from Nanjing Cobioer Biosicences (Nanjing, China). American Type Culture Collection (ATCC) provided LN229 (human glioma cells). NHA (Gibco Human Astrocytes) and Gibco Astrocyte Medium (DMEM, N-2 Supplement, One Shot fetal bovine serum) were purchased from ThermoFisher Scientific (Waltham, MA, USA). The LN229, U251, HepG2 and HeLa cells were cultured in DMEM (Procell, Wuhan, China). The Capan-2 cells were cultured in RPMI-1640 (Procell, Wuhan, China) and NHA cells were cultured in Gibco Astrocyte Medium, supplemented with 10% FBS (Solarbio, Beijing, China) and 1% Penicillin–Streptomycin (Elabscience Biotechnology Co.,Ltd, Wuhan, China) at 37 °C with 5% CO2.
(§3) In the exponential phase of the growth, five tumor cell lines and one normal human astrocytes were plated onto 96-well plates at a concentration of 8000 cells/well for 24 h. Compounds 1–12 were prepared to various concentrations (64, 32, 16, 8, 4, 2, 1 and 0.5 µM in medium containing less than 0.1% DMSO) and incubated in 96-well plates (each concentration in four-fold wells) for 24 h. Cell viability was determined according to reported assay methods using the commercial CCK-8 kit (Elabscience Biotechnology Co., Ltd., Wuhan, China). The optical density (OD) of each well was measured with an AMR-100 microplate reader at 450 nm (Allsheng Corporation, Hangzhou, China). Cytotoxicity emerged as the value of the drug concentration at the inhibition of cell growth by 50% (IC50). The experiments were conducted for three independent replicates, and Doxorubicin was used as the positive control.

glioma cells LN229 = assay: Flow cytometry analysis for apoptosis (Annexin V-FITC/PI); format: cell-based, human; conditions: different concentrations, 24 h
Method: Flow cytometry was used to analyze the effect of 1 on the apoptosis of glioma cells LN229. Cells were treated with different concentrations of 1 for 24 h. Then, the cells were collected and washed twice with cold PBS for five minutes (1000 rpm). The cells were analyzed for apoptosis by flow cytometry (BD, Franklin Lakes, NJ, USA) using the Annexin V-FITC/PI assay kit.

[3] = system: HepG2 (human hepatic cancer cells); assay: CCK-8 cytotoxic assay, HepG2; format: cell-based; conditions: HepG2 cells, CCK-8, 24 h, read-out: IC50 ± SD, HepG2
From the text: as §2, §3

[4] = system: HeLa (human cervical cancer cells); assay: CCK-8 cytotoxic assay, HeLa; format: cell-based; conditions: HeLa cells, CCK-8, 24 h, read-out: IC50 ± SD, HeLa
From the text: as §2, §3

[5] = system: EGFR/PI3K/Akt/mTOR signaling pathway in LN229 cells; assay: Western blot of EGFR/PI3K/Akt/mTOR signaling in LN229; format: cell-based, human; conditions: LN229, 24 h
From the text: as §1

[6] = system: NHA (normal human astrocytes); assay: CCK-8 cytotoxic assay, NHA normal astrocytes; format: cell-based; conditions: Astrocyte; NHA normal human astrocytes, CCK-8, 24 h; read-out: IC50 ± SD, NHA
From the text: as §2, §3

[7] = system: LN229 (human glioma cells); assay: CCK-8 cytotoxic assay, LN229; format: cell-based; conditions: LN-229, LN229 cells, CCK-8, 24 h, read-out: IC50 ± SD, LN229
From the text: as §2, §3

[8] = system: U251 (human glioma cells); assay: CCK-8 cytotoxic assay, U251; format: cell-based; conditions: U-251, U251 cells, CCK-8, 24 h, read-out: IC50 ± SD, U251
From the text: as §2, §3

[9] = system: five cancer cell lines (LN229, U251, Capan-2, HeLa, HepG2); assay: CCK-8 cytotoxic assay, summary over five cancer cell lines; format: cell-based; conditions: Homo sapiens, range over compounds 1 and 2 and five cancer cell lines, read-out: IC50 values (range) against five cancer cell lines
From the text: as §2
In the exponential phase of the growth, five tumor cell lines and one normal human astrocytes were plated onto 96-well plates at a concentration of 8000 cells/well for 24 h. […] Cell viability was determined according to reported assay methods using the commercial CCK-8 kit (Elabscience Biotechnology Co., Ltd., Wuhan, China). The optical density (OD) of each well was measured with an AMR-100 microplate reader at 450 nm (Allsheng Corporation, Hangzhou, China). […]

For `CC1CCC2(OC1)OC1CC3C4CC=C5CC(OC6OC(COC7(CO)OC(CO)C(O)C7O)C(O)C(O)C6OC6OC(C)C(O)C(O)C6O)CCC5(C)C4CCC3(C)C1C2C` [Compound 1, diosgenin-3-O-β-D-fructofuranosyl-(1→6)-[α-L-rhamnopyranosyl-(1 → 2)]-β-D-glucopyranoside], the “expression of Bax/Bcl-2” value [1] was “significantly increased”, the “expression of cleaved caspase 3” value [1] was “significantly increased” and the “expression of cytochrome c” value [1] was “significantly increased”. For the same compound, the IC50 [2] was 3.26 ± 0.34 µM, the “ratio of apoptotic LN229 (Annexin V+/PI−)” value (glioma cells LN229) was “increased” and the “ratio of living cells (Annexin V−/PI−)” value (glioma cells LN229) was “decreased”. For the same compound, the IC50 [3] was 4.32 ± 0.51 µM, the IC50 [4] was 3.3 ± 0.38 µM and the “expression level of p-Akt” value [5] was “decreased”. For the same compound, the “expression level of p-PI3K” value [5] was “decreased”, the “expression level of p-mTOR” value [5] was “decreased” and the “expression of total EGFR” value [5] was “no evident effect”. For the same compound, the “phosphorylation levels of EGFR” value [5] was “significantly suppressed”, the IC50 [6] was over 50 µM and the IC50 [7] was 4.18 ± 0.31 µM. The IC50 [8] was 3.85 ± 0.44 µM and the IC50 [9] was 3.26 to 22.3 µM.
